pIC50: −log10 of the molar value. Numbered stars: 1 amine (or outer) side, 2 acyl side, 3 side chain; on linkers, the order of the positions; unused ones are H or OH. Bridge positions count the residues as written; N and C are the ends. Square brackets hold non-standard residues; d marks the D form. Peptide text beside a SMILES is read from it. * marks the point of attachment. hPhe(3-Cl-4-CF3) = N[C@@H](CCc1ccc(C(F)(F)F)c(Cl)c1)C(=O)O; NMePhe(4-CF3) = CN[C@@H](Cc1ccc(C(F)(F)F)cc1)C(=O)O; hPhe(4-CF3) = N[C@@H](CCc1ccc(C(F)(F)F)cc1)C(=O)O; X37 = CC(C)(C)NC(=O)COC[C@H](CC(=O)[*:1])N[*:2]; NMePhe(4-Me) = CN[C@@H](Cc1ccc(C)cc1)C(=O)O; NMeGly(cPent) = CN[C@H](C(=O)O)C1CCCC1; NMeGly(cBu) = CN[C@H](C(=O)O)C1CCC1; NMeCha = CN[C@@H](CC1CCCCC1)C(=O)O; NMeD = CN[C@@H](CC(=O)O)C(=O)O; CH2CONHtBu = CC(C)(C)NC(=O)C*; NMeL = CN[C@@H](CC(C)C)C(=O)O; NMeNle = CCCC[C@H](NC)C(=O)O; NMeV = CN[C@H](C(=O)O)C(C)C; d(β3hA) = C[C@@H](N)CC(=O)O; NMeS = CN[C@@H](CO)C(=O)O; NMeA = CN[C@@H](C)C(=O)O; Piperidide = C1CCN(*)CC1; dNMeA = CN[C@H](C)C(=O)O; Ac5c = NC1(C(=O)O)CCCC1; Aze = O=C(O)[C@@H]1CCN1; Ac4c = NC1(C(=O)O)CCC1; CH2CMe2OH = CC(C)(O)C*; NBuGly = CCCCNCC(=O)O; Aib = CC(C)(N)C(=O)O; Isopentyl = CC(C)CC*; NEtG = CCNCC(=O)O; Sar = CNCC(=O)O
molecular target: protein-protein interaction between Kras and SOS1 (biotin-tagged human Kras loaded with GDP, His-tagged human SOS1) (Homo sapiens (Human), UniProt P01116, G12D); experiment: Protein-protein interaction inhibition between Kras and SOS1 (KrasG12D-SOS PPI) using AlphaScreen; assay type: biochemical; settings: AlphaScreen; biotin-tagged human Kras loaded with GDP, His-tagged human SOS1; read-out: KRAS G12D-SOS PPI IC50;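 further: kras produced in E. coli, Ni-coupled donor beads and streptavidin acceptor beads, excitation 680 nm with emission detected at 520–620 nm via singlet oxygen transfer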

SMILES	pIC50
CC[C@H](C)[C@@H]1NC(=O)[C@H](CC(C)C)N(C)C(=O)C[C@@H](C)NC(=O)[C@H](C2CCCC2)N(C)C(=O)C2(CCCC2)NC(=O)[C@@H]2CCCN2C(=O)[C@H](CCc2ccc(C(F)(F)F)c(Cl)c2)NC(=O)CN(C)C(=O)[C@H](CC2CCCCC2)N(C)C(=O)[C@@H]2CCN2C(=O)[C@H](C)N(C)C1=O [Compound 1477] (cyclo([Ac5c][NMeGly(cPent)][d(β3hA)][NMeL]I[NMeA][Aze][NMeCha][Sar][hPhe(3-Cl-4-CF3)]P))	7.55
CC[C@H](C)[C@@H]1NC(=O)[C@H](CC(C)C)N(C)C(=O)C[C@@H](C)NC(=O)[C@H](C2CCCC2)N(C)C(=O)C2(CCCC2)NC(=O)[C@@H]2CCCN2C(=O)[C@H](CCc2ccc(C(F)(F)F)c(Cl)c2)NC(=O)[C@@H](C)N(C)C(=O)[C@H](Cc2ccc(C(F)(F)F)cc2)N(C)C(=O)[C@@H]2CCN2C(=O)[C@H](C)N(C)C1=O [Compound 1482] (cyclo([Ac5c][NMeGly(cPent)][d(β3hA)][NMeL]I[NMeA][Aze][NMePhe(4-CF3)][dNMeA][hPhe(3-Cl-4-CF3)]P))	7.06
CC[C@H](C)[C@@H]1NC(=O)[C@H](C)N(C)C(=O)C[C@@H](C)NC(=O)[C@H](C2CCCC2)N(C)C(=O)C2(CCCC2)NC(=O)[C@@H]2CCCN2C(=O)[C@H](CCc2ccc(C(F)(F)F)c(Cl)c2)NC(=O)CN(C)C(=O)[C@H](Cc2ccc(C)cc2)N(C)C(=O)CN(C)C(=O)CN(C)C1=O [Compound 1485] (cyclo([Ac5c][NMeGly(cPent)][d(β3hA)][NMeA]I[Sar][Sar][NMePhe(4-Me)][Sar][hPhe(3-Cl-4-CF3)]P))	9.08
CC[C@H](C)[C@@H]1NC(=O)[C@H](C)N(C)C(=O)C[C@@H](C)NC(=O)[C@H](C2CCCC2)N(C)C(=O)C2(CCC2)NC(=O)[C@@H]2CCCN2C(=O)[C@H](CCc2ccc(C(F)(F)F)c(Cl)c2)NC(=O)CN(C)C(=O)[C@H](Cc2ccc(C(F)(F)F)cc2)N(C)C(=O)CN(C)C(=O)CN(C)C1=O [Compound 1486] (cyclo([Ac4c][NMeGly(cPent)][d(β3hA)][NMeA]I[Sar][Sar][NMePhe(4-CF3)][Sar][hPhe(3-Cl-4-CF3)]P))	9.30
CC[C@H](C)[C@@H]1NC(=O)[C@H](CC(C)C)N(C)C(=O)C[C@@H](C)NC(=O)[C@H](CC(C)C)N(C)C(=O)C2(CCCC2)NC(=O)[C@H](COCC(=O)NC(C)(C)C)N(C)C(=O)[C@H](CCc2ccc(C(F)(F)F)c(Cl)c2)NC(=O)CN(C)C(=O)[C@H](COCCC(C)C)N(C)C(=O)CN(C)C(=O)CN(C)C1=O [Compound 1492] (cyclo([Ac5c][NMeL][d(β3hA)][NMeL]I[Sar][Sar][NMeS](Isopentyl)[Sar][hPhe(3-Cl-4-CF3)][NMeS](CH2CONHtBu)))	6.62
CC[C@H](C)[C@@H]1NC(=O)[C@H](CC(C)C)N(C)C(=O)C[C@@H](C)NC(=O)[C@H](C2CCCC2)N(C)C(=O)C2(CCCC2)NC(=O)[C@@H]2CCCN2C(=O)[C@H](CCc2ccc(C(F)(F)F)c(Cl)c2)NC(=O)CN(C)C(=O)[C@H](Cc2ccc(C(F)(F)F)cc2)N(C)C(=O)[C@@H]2CCN2C(=O)CN(C)C1=O [Compound 1496] (cyclo([Ac5c][NMeGly(cPent)][d(β3hA)][NMeL]I[Sar][Aze][NMePhe(4-CF3)][Sar][hPhe(3-Cl-4-CF3)]P))	8.70
CC[C@H](C)[C@@H]1NC(=O)[C@H](C)N(C)C(=O)C[C@@H](C)NC(=O)[C@H](C2CCCC2)N(C)C(=O)C2(CCCC2)NC(=O)[C@@H]2CCCN2C(=O)[C@H](CCc2ccc(C(F)(F)F)c(Cl)c2)NC(=O)[C@@H](C)N(C)C(=O)[C@H](Cc2ccc(C(F)(F)F)cc2)N(C)C(=O)[C@@H]2CCN2C(=O)[C@H](C)N(C)C1=O [Compound 1497] (cyclo([Ac5c][NMeGly(cPent)][d(β3hA)][NMeA]I[NMeA][Aze][NMePhe(4-CF3)][dNMeA][hPhe(3-Cl-4-CF3)]P))	7.60
CC[C@H](C)[C@@H]1NC(=O)[C@H](CC(C)C)N(C)C(=O)C[C@@H](C)NC(=O)[C@H](C2CCCC2)N(C)C(=O)C2(CCCC2)NC(=O)[C@@H]2CCCN2C(=O)[C@H](CCc2ccc(C(F)(F)F)c(Cl)c2)NC(=O)CN(C)C(=O)[C@H](CC2CCCCC2)N(C)C(=O)[C@@H]2CCN2C(=O)CN(C)C1=O [Compound 1499] (cyclo([Ac5c][NMeGly(cPent)][d(β3hA)][NMeL]I[Sar][Aze][NMeCha][Sar][hPhe(3-Cl-4-CF3)]P))	7.72
CC[C@H](C)[C@@H]1NC(=O)[C@H](CC(C)C)N(C)C(=O)C[C@@H](C)NC(=O)[C@H](C2CCCC2)N(C)C(=O)C2(CCCC2)NC(=O)[C@@H]2CCCN2C(=O)[C@H](CCc2ccc(C(F)(F)F)c(Cl)c2)NC(=O)[C@@H](C)N(C)C(=O)[C@H](Cc2ccc(C)cc2)N(C)C(=O)[C@@H]2CCN2C(=O)[C@H](C)N(C)C1=O [Compound 1504] (cyclo([Ac5c][NMeGly(cPent)][d(β3hA)][NMeL]I[NMeA][Aze][NMePhe(4-Me)][dNMeA][hPhe(3-Cl-4-CF3)]P))	7.24
CCCCN1CC(=O)N(C)CC(=O)N(C)[C@@H](COCCC(C)C)C(=O)N(C)CC(=O)N[C@@H](CCc2ccc(C(F)(F)F)c(Cl)c2)C(=O)N(C)[C@@H](COCC(C)(C)O)C(=O)NC(C)(C)C(=O)N(C)[C@@H](C(C)C)C(=O)N[C@H](C)CC(=O)N(C)[C@@H](CC(C)C)C(=O)N[C@@H]([C@@H](C)CC)C1=O [Compound 1505] (cyclo([Aib][NMeV][d(β3hA)][NMeL]I[NBuGly][Sar][NMeS](Isopentyl)[Sar][hPhe(3-Cl-4-CF3)][NMeS](CH2CMe2OH)))	6.66
CC[C@H](C)[C@@H]1NC(=O)[C@H](C)N(C)C(=O)C[C@@H](C)NC(=O)[C@H](C2CCCC2)N(C)C(=O)C2(CCCC2)NC(=O)[C@@H]2CCCN2C(=O)[C@H](CCc2ccc(C(F)(F)F)c(Cl)c2)NC(=O)CN(C)C(=O)[C@H](Cc2ccc(C(F)(F)F)cc2)N(C)C(=O)[C@@H]2CCN2C(=O)[C@H](C)N(C)C1=O [Compound 1512] (cyclo([Ac5c][NMeGly(cPent)][d(β3hA)][NMeA]I[NMeA][Aze][NMePhe(4-CF3)][Sar][hPhe(3-Cl-4-CF3)]P))	8.92
CC[C@H](C)[C@@H]1NC(=O)[C@H](C)N(C)C(=O)C[C@@H](C)NC(=O)[C@H](C2CCCC2)N(C)C(=O)C2(CCCC2)NC(=O)[C@@H]2CCCN2C(=O)[C@H](CCc2ccc(C(F)(F)F)c(Cl)c2)NC(=O)CN(C)C(=O)[C@H](Cc2ccc(C)cc2)N(C)C(=O)[C@@H]2CCN2C(=O)[C@H](C)N(C)C1=O [Compound 1514] (cyclo([Ac5c][NMeGly(cPent)][d(β3hA)][NMeA]I[NMeA][Aze][NMePhe(4-Me)][Sar][hPhe(3-Cl-4-CF3)]P))	9.00
CC[C@H](C)[C@@H]1NC(=O)[C@H](CC(C)C)N(C)C(=O)C[C@@H](C)NC(=O)[C@H](CC(C)C)N(C)C(=O)C(C)(C)NC(=O)[C@H](COCC(C)(C)O)N(C)C(=O)[C@H](CCc2ccc(C(F)(F)F)c(Cl)c2)NC(=O)CN(CC)C(=O)[C@H](COCCC(C)C)N(C)C(=O)CN(C)C(=O)CN(C)C1=O [Compound 1516] (cyclo([Aib][NMeL][d(β3hA)][NMeL]I[Sar][Sar][NMeS](Isopentyl)[NEtG][hPhe(3-Cl-4-CF3)][NMeS](CH2CMe2OH)))	6.47
CC[C@H](C)[C@@H]1NC(=O)[C@H](C)N(C)C(=O)C[C@@H](C)NC(=O)[C@H](C2CCCC2)N(C)C(=O)C2(CCCC2)NC(=O)[C@@H]2CCCN2C(=O)[C@H](CCc2ccc(C(F)(F)F)c(Cl)c2)NC(=O)[C@H]2CCCN2C(=O)[C@H](Cc2ccc(C)cc2)N(C)C(=O)CN(C)C(=O)CN(C)C1=O [Compound 1525] (cyclo([Ac5c][NMeGly(cPent)][d(β3hA)][NMeA]I[Sar][Sar][NMePhe(4-Me)][dP][hPhe(3-Cl-4-CF3)]P))	7.00
CC[C@H](C)[C@@H]1NC(=O)[C@H](CC(C)C)N(C)C(=O)C[C@@H](C)NC(=O)[C@H](C2CCCC2)N(C)C(=O)C2(CCCC2)NC(=O)[C@@H]2CCCN2C(=O)[C@H](CCc2ccc(C(F)(F)F)c(Cl)c2)NC(=O)[C@@H](C)N(C)C(=O)[C@H](CC2CCCCC2)N(C)C(=O)[C@@H]2CCN2C(=O)CN(C)C1=O [Compound 1531] (cyclo([Ac5c][NMeGly(cPent)][d(β3hA)][NMeL]I[Sar][Aze][NMeCha][dNMeA][hPhe(3-Cl-4-CF3)]P))	6.64
CC[C@H](C)[C@@H]1NC(=O)[C@H](CC(C)C)N(C)C(=O)C[C@@H](COCC(=O)NC(C)(C)C)NC(=O)[C@H](CC(C)C)N(C)C(=O)C(C)(C)NC(=O)[C@H](CC(C)C)N(C)C(=O)[C@H](CCc2ccc(C(F)(F)F)cc2)NC(=O)CN(C)C(=O)[C@H](COCCC(C)C)N(C)C(=O)CN(C)C(=O)CN(C)C1=O [Compound 1538] ([NMeL]I[Sar][Sar][NMeS](Isopentyl)[Sar][hPhe(4-CF3)][NMeL][Aib][NMeL]; linker N-C via X37)	6.96
CCCC[C@H]1C(=O)N2CC[C@H]2C(=O)N(C)[C@@H](CC2CCCCC2)C(=O)N(C)CC(=O)N[C@@H](CCc2ccc(C(F)(F)F)c(Cl)c2)C(=O)N2CCC[C@H]2C(=O)NC2(CCCC2)C(=O)N(C)[C@@H](C(C)C)C(=O)N[C@H](C)CC(=O)N(C)[C@@H](CC(C)C)C(=O)N[C@@H]([C@@H](C)CC)C(=O)N1C [Compound 1548] (cyclo([Ac5c][NMeV][d(β3hA)][NMeL]I[NMeNle][Aze][NMeCha][Sar][hPhe(3-Cl-4-CF3)]P))	6.85
CC[C@H](C)[C@@H]1NC(=O)[C@H](CC(C)C)N(C)C(=O)C[C@@H](C(=O)N2CCCCC2)N(C)C(=O)[C@H](C(C)C)N(C)C(=O)C2(CCCC2)NC(=O)[C@@H]2CCCN2C(=O)[C@H](CCc2ccc(C(F)(F)F)c(Cl)c2)NC(=O)CN(C)C(=O)[C@H](CC2CCCCC2)N(C)C(=O)[C@@H]2CCN2C(=O)[C@H](C2CCC2)N(C)C1=O [Compound 1554] ([NMeL]I[NMeGly(cBu)][Aze][NMeCha][Sar][hPhe(3-Cl-4-CF3)]P[Ac5c][NMeV][NMeD]-Piperidide; lactam N-11)	6.70
CC[C@H](C)[C@@H]1NC(=O)[C@H](CC(C)C)N(C)C(=O)C[C@@H](C(=O)N2CCCCC2)N(C)C(=O)[C@H](C(C)C)N(C)C(=O)C2(CCCC2)NC(=O)[C@@H]2CCCN2C(=O)[C@H](CCc2ccc(C(F)(F)F)c(Cl)c2)NC(=O)CN(C)C(=O)[C@H](CC2CCCCC2)N(C)C(=O)[C@@H]2CCN2C(=O)[C@H](CC(C)C)N(C)C1=O [Compound 1558] ([NMeL]I[NMeL][Aze][NMeCha][Sar][hPhe(3-Cl-4-CF3)]P[Ac5c][NMeV][NMeD]-Piperidide; lactam N-11)	7.15
